# According to ChEMBL document CHEMBL4373715, “Discovery and Biological Evaluations of Halogenated 2,4-Diphenyl Indeno[1,2-b]pyridinol Derivatives as Potent Topoisomerase IIα-Targeted Chemotherapeutic Agents for Breast Cancer” (J Med Chem, 2019):
# pIC50: −log10 of the molar value. The source made the active and inactive calls. No cut-off for these calls is given here.
# Legend:
# MDA-MB-231 [1] = assay: Antitumor activity against human MDA-MB-231 cells expressing luciferase xenografted in mouse assessed as reduction in tumor weight at 12 mg/kg, iv administered once daily for 10 days measured 18 days post-last dose by bioluminescent imaging analysis; assay type: functional, organism-based
# MDA-MB-231 [2] = assay: Antitumor activity against human MDA-MB-231 cells expressing luciferase xenografted in mouse assessed as tumor growth inhibition at 12 mg/kg, iv administered once daily for 10 days measured on day 4 and 11 by bioluminescent imaging analysis; assay type: functional, organism-based
# HCT-15 = assay: Antiproliferative activity against human HCT15 cells measured after 72 hrs by EZ-Cytox assay; assay type: functional, cell-based; conditions: HCT-15, 72 h
# DU-145 = assay: Antiproliferative activity against human DU145 cells measured after 72 hrs by EZ-Cytox assay; assay type: functional, cell-based; conditions: DU-145, 72 h
# HeLa = assay: Antiproliferative activity against human HeLa cells measured after 72 hrs by EZ-Cytox assay; assay type: functional, cell-based
# [3] = target: DNA topoisomerase 2-alpha (Homo sapiens) (UniProt P11388); assay: Inhibition of recombinant human topoisomerase 2alpha-mediated relaxation of supercoiled pBR322 DNA at 100 uM measured after 30 mins by ethidium bromide staining based agarose gel electrophoresis relative to control
# T47D [4] = assay: Induction of DNA damage in human T47D cells at 5 to 10 uM measured after 24 hrs by comet assay; assay type: functional, cell-based
# T47D [5] = assay: Induction of apoptosis in human T47D cells assessed as increase in Bax expression at 10 to 30 uM measured after 24 hrs by Western blot analysis; assay type: functional, cell-based
# [6] = Stability in mouse plasma assessed as parent compound remaining at 1 mM measured after 0.25 hrs by LC-MS/MS analysis; assay type: ADME, cell-free; conditions: read-out: Stability
# [7] = Stability in mouse plasma assessed as parent compound remaining at 1 mM measured after 0.5 hrs by LC-MS/MS analysis; assay type: ADME, cell-free; conditions: 1000 µM
# [8] = Stability in mouse plasma assessed as parent compound remaining at 1 mM measured after 1 hr by LC-MS/MS analysis; assay type: ADME, cell-free; conditions: read-out: Stability
# [9] = Stability in human plasma assessed as parent compound remaining at 1 mM measured immediately by LC-MS/MS analysis; assay type: ADME, cell-free; conditions: read-out: Stability
# [10] = Stability in human plasma assessed as parent compound remaining at 1 mM measured after 0.25 hrs by LC-MS/MS analysis; assay type: ADME, cell-free; conditions: read-out: Stability
# [11] = Stability in human plasma assessed as parent compound remaining at 1 mM measured after 2 hrs by LC-MS/MS analysis; assay type: ADME, cell-free; conditions: read-out: Stability
# [12] = Stability in human plasma assessed as parent compound remaining at 1 mM measured after 4 hrs by LC-MS/MS analysis; assay type: ADME, cell-free; conditions: read-out: Stability
# [13] = Protein binding in mouse plasma assessed as unbound fraction at 1 mM measured immediately by LC-MS/MS analysis; assay type: ADME, cell-free
# [14] = Protein binding in human plasma assessed as unbound fraction at 1 mM measured immediately by LC-MS/MS analysis; assay type: ADME, cell-free
# [15] = Toxicity in female ICR mouse assessed as physical abnormalities at 50 to 100 mg/kg, iv administered as single dose measured up to 7 days; assay type: organism-based; conditions: in vivo, 168 h
# [16] = Toxicity in female ICR mouse assessed as change in body weight at 50 to 100 mg/kg, iv administered as single dose measured daily for 7 days; assay type: organism-based; conditions: in vivo, 168 h
# [17] = Toxicity in male ICR mouse assessed as mortality at 50 mg/kg, iv administered as single dose measured daily for 7 days (reference value: 0%); assay type: organism-based; conditions: in vivo
# [18] = Toxicity in female ICR mouse assessed as mortality at 50 mg/kg, iv administered as single dose measured daily for 7 days (reference value: 0%); assay type: organism-based; conditions: in vivo
# [19] = Toxicity in female ICR mouse assessed as mortality at 100 mg/kg, iv administered as single dose measured daily for 7 days (reference value: 0%); assay type: organism-based; conditions: in vivo
# HCC70 = assay: Antiproliferative activity against human HCC70 cells measured after 72 hrs by Ez-cytox assay; assay type: functional, cell-based; conditions: HCC70, 72 h, read-out: IC50
# Chain of DNA topoisomerase 2-alpha (Homo sapiens) (P11388 whole entry): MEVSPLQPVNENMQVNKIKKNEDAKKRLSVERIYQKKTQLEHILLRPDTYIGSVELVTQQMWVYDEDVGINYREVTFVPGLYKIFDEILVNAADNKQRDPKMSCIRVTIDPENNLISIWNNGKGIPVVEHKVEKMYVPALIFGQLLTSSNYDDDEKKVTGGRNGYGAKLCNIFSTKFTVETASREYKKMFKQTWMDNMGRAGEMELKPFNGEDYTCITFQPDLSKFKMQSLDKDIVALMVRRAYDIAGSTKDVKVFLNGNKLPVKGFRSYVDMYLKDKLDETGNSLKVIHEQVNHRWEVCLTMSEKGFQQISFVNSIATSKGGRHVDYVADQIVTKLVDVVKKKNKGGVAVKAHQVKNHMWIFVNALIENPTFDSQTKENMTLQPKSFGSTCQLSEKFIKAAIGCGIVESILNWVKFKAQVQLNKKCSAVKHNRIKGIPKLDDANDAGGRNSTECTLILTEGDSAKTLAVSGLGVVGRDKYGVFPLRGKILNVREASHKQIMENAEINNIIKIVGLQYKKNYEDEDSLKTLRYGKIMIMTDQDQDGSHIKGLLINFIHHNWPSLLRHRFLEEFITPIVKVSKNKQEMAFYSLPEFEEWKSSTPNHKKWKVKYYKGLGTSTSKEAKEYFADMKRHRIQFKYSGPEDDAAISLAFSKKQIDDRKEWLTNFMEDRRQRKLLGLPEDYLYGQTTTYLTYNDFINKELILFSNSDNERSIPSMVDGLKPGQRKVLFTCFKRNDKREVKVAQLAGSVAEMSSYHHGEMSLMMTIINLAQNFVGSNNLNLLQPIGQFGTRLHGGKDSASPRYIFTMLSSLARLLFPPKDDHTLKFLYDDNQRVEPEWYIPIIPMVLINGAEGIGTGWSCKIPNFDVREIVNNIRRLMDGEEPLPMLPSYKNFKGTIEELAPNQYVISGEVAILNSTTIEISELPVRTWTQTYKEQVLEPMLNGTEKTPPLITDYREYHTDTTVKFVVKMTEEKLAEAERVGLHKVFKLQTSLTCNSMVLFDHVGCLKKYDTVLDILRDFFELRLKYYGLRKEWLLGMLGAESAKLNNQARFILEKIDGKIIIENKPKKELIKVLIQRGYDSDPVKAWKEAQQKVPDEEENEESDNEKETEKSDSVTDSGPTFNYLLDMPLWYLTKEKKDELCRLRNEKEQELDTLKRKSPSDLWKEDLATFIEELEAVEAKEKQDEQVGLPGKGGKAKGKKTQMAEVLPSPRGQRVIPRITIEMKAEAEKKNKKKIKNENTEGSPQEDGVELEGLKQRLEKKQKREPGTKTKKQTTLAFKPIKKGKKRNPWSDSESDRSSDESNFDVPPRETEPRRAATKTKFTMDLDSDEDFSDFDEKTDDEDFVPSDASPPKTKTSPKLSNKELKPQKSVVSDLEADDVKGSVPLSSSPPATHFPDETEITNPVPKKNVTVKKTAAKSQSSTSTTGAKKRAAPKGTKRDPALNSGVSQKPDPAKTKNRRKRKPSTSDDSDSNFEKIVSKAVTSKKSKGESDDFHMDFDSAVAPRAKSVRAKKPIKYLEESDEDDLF
smiles,measurement,setting,value
Oc1ccc(-c2cc(-c3ccccc3Cl)nc3c2Cc2c(O)cccc2-3)cc1,Activity,MDA-MB-231 [1],Active
same,TGI,MDA-MB-231 [2],Active
same,pIC50,HCT-15,7.85
same,pIC50,DU-145,7.14
same,pIC50,HeLa,5.61
same,inhibition,[3],100%
same,Activity,T47D [4],Active
same,Activity,T47D [5],Active
same,remaining at 0.25 h,[6],109%
same,Stability,[7],117.1%
same,remaining at 1 h,[8],110%
same,remaining at 0 h,[9],100%
same,remaining at 0.25 h,[10],98.7%
same,remaining at 2 h,[11],100%
same,remaining at 4 h,[12],105%
same,fraction unbound at 0 h,[13],1
same,fraction unbound at 0 h,[14],1
same,Activity,[15],Non-Toxic
same,Activity,[16],Non-Toxic
same,mortality at 168 h,[17],0%
same,mortality at 168 h,[18],0%
same,mortality at 168 h,[19],0%
same,pIC50,HCC70,5.68
